According to US7534558B2, “In vitro diagnostic test for enterovirus infections” (Universite de Lille 2 Droit Et Sante, priority 2003, dated 2009):

Tested on: anti-VP4 antibodies in plasmas or serums
Experiment: ELISA of plasmas/serums on wells coated with VP4 protein or VP4 peptides
Assay type: binding, human
Details: diluted 1/50, antigen coated at 5 μg/ml, 490 nm
Method: 40 plasmas from non diabetic patients and 40 plasmas or serums from diabetic patients were assayed.
The VP4 protein or the 5 VP4 peptides, diluted at 5 μg/ml in PBS buffer pH=7.4, are coated in the wells of a microplate of 96 wells (FluoroMunc, MaxiSorp surface, NUNC, Danemark) at the rate of 100 μl/well. The plates are incubated for 1 hour at 37° C. under humid atmosphere, then left for 24 h at room temperature. After 3 washings with PBS buffer, the wells are saturated with 300 μl of saturation buffer for 1 hour at 37° C. under humid atmosphere, before washing 3 times with the washing buffer. Then 250 μl of post-coating buffer are added to each well and the plates are incubated for 24 h at room temperature, then stored at 4° C. until use.
The wells coated with the VP4 protein or the different peptides VP4 are washed 3 times with washing buffer in order to remove the post-coating solution. Then 100 μl of the plasmas or serums diluted to 1/50th in dilution buffer are added to different wells and the plates are incubated for 1 hour at 37° C. under humid atmosphere. Simultaneously, a negative control well containing 100 μl of dilution buffer is carried out. Then the wells are washed 3 times with the washing solution and 100 μl of secondary antibody solution are added to each well. After incubation for 1 h at 37° C. under humid atmosphere, the wells are washed 5 times with the washing solution and 100 μl of substrate solution are added to each well. The plates are incubated for 30 minutes at room temperature and in the dark. The coloured reaction is stopped by addition of 25 μl of H2SO4 2M (1M) per well and the plates are read in a plate reader at a wavelength of 490 nm.
ODs obtained for each serum with the VP4 protein and the different peptides VP4 were divided by the OD obtained with the negative control. The following Tables show the mean +/− standard deviation of the rates of OD obtained with the two series of assayed serums (Patient=diabetic patients, Control=not diabetic). (see FIGS. 8 à 10)

## recombinant VP4 protein: recombinant VP4 protein of CVB4E2, made in E. coli as MBP-VP4 fusion and cleaved by Factor Xa
Control = 40 serums of non diabetic patients
  Mean value of OD ratio (OD / OD of negative control), ELISA: 0.695
Patient = 40 serums of diabetic patients
  Mean value of OD ratio (OD / OD of negative control), ELISA: 2.119
